Assay results from PubChem BioAssay AID2005 (Sanford-Burnham Center for Chemical Genomics, 2009).
Active and inactive are the calls of the source.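 Rule for the calls: active = plate Z score at or below -3, or inhibition of at least 30% at 20 µM; inactive = the rest.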

Test: EGFP reporter destabilization counter-screen – F442A EGFP cells, fluorescence, counter-screen for p/CIP destabilizer project, dose response (AID 2005);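 note: cells express EGFP alone from a CMV promoter as a counter screen for p/CIP-EGFP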
Details: F442A EGFP cells, EGFP fluorescence, 16 h, stronger effect = higher value

Compound	inhibition (EGFP decrease, at 10 µM) [%]	inhibition (at 20 µM)
Nc1ccc(C(=O)N2N=C(c3ccccc3)CC2(O)C(F)(F)F)cc1 (stereo not given)	28.6	4.3% (inactive)
Cc1cc(CN(C)C(=O)c2ccc3nc(Cc4ccccc4F)oc3c2)on1	21.3	8.5% (inactive)
Cc1ccc(/C=C/C(=O)c2ccc(N3CCOCC3)cc2)s1	8.3	-1.4% (inactive)
COc1cccc(CN2CC(C(=O)N(C)Cc3nc(C)cs3)CCC2=O)c1 (stereo not given)	-5.9	16.2% (inactive)
CNc1cc(C(F)(F)F)nc(-c2ccccn2)n1	-1.6	22.4% (inactive)
O=C(CN(CCc1ccccc1)C(=O)CNS(=O)(=O)c1ccccc1)NCC1CCCO1 (stereo not given)	25.6	23.8% (inactive)
CC1=C(C(=O)OCc2ccccc2)C(c2ccc(C(F)(F)F)cc2)NC(=O)N1CCCCCC(=O)O (stereo not given)	-4.3	-6% (inactive)
COC(=O)c1cccc(C23CC4(C2)[C@H](CN(C)[C@@H]4c2ccccc2)C3c2ccc(C(F)(F)F)cc2)c1 (stereo not given in full)	8	8.1% (inactive)
CC(=O)Nc1cn(C(C)=O)c(C)n1	5.9	33.7%
CCN(Cc1nc2ccccc2c(=O)[nH]1)Cc1nc2ccsc2c(=O)[nH]1	26.2	22.6% (inactive)
CCn1cnc2cc(NCc3cccc(OC)c3O)ccc21	16.7	10.7% (inactive)
N/C(=N\OC(=O)c1ccc(Cl)cc1Cl)c1ccccc1	10.4	1.3% (inactive)
CCOC(=O)N1CCN(S(=O)(=O)c2cc(OCC)ccc2OCC)CC1	-19.2	5.4% (inactive)
CCOC(=O)CSC1=Nc2ccccc2C2=NC(CC(=O)NCc3ccc4c(c3)OCO4)C(=O)N12 (stereo not given)	-26.1	3.9% (inactive)
N#Cc1cn(CC(=O)NCCc2c[nH]c3ccccc23)c2ccccc12	10.9	-0.3% (inactive)
CC(=O)c1ccc(NC(=O)NNS(=O)(=O)c2ccc([N+](=O)[O-])cc2)cc1	16.8	22.1% (inactive)
Nc1ncnc2c1ncn2[C@H]1C[C@H](O)[C@@H](CO)O1	1.2	26.2% (inactive)
COc1cc(C2NCCC(=O)C2(C)C)cc(OC)c1OC (stereo not given)	-1.8	21.4% (inactive)
Cc1ccc(S(=O)(=O)NCC(C)NS(=O)(=O)c2ccc(C)cc2)cc1 (stereo not given)	34.7	-7.7% (inactive)
O=C(NCCc1cccc(F)c1)C1CCCN(c2nc3ccccc3s2)C1 (stereo not given)	16.8	0.4% (inactive)
O=C(Oc1ccccc1-c1nnco1)c1ccccc1	31	-29.2% (inactive)
CC(=O)Nc1ccc(S(=O)(=O)NCc2cn3ccsc3n2)cc1	8.3	1% (inactive)
O=C1C(=O)c2ccc(-c3ccccc3)cc2-c2ccccc21	-14.4	2.4% (inactive)
CN(C)c1ccc(C(=O)Nc2cc(C(F)(F)F)ccc2-n2cncn2)cc1	5	10.4% (inactive)
S=c1[nH]nc(COc2ccccc2)n1/N=C/c1ccc(Cl)cc1Cl	13.4	9.7% (inactive)
C[C@H]1CC[C@@H]2[C@@H](C)[C@H]3[C@H](C[C@H]4[C@@H]5CC=C6C[C@@H](O[C@@H]7O[C@H](CO)[C@H](O)[C@H](O[C@@H]8O[C@H](CO)[C@@H](O)[C@H](O)[C@H]8O)[C@H]7O[C@@H]7O[C@@H](C)[C@H](O)[C@@H](O)[C@H]7O)CC[C@]6(C)[C@H]5CC[C@]34C)N2C1	30.3	-3% (inactive)
Cc1ccc(NC(=S)Nc2cccc3cnccc23)cc1	2.1	26.8% (inactive)
CCN(CC)C(=O)c1oc2ccc(S(=O)(=O)N3CC(C)CC(C)C3)cc2c1C (stereo not given)	29.3	49.5%

Compound	inhibition (EGFP decrease, at 10 µM) [%]	inhibition (at 20 µM)
COc1cccc(-c2noc(-c3ccc(Cl)nc3)n2)c1	-8.2	-3.6% (inactive)
C=CCn1c(SCCN2C(=O)c3ccccc3C2=O)nc2scc(-c3ccccc3)c2c1=O	30.3	0.6% (inactive)
O=C(CSc1ccc(Cl)cc1)OCc1nnc(-c2ccccc2)o1	7.2	13.1% (inactive)
Cc1ccc(S(=O)(=O)CCSc2nc(C)cc(C(F)(F)F)c2C#N)cc1	-55.8	-128% (inactive)
O=C(CS(=O)CC(=O)Nc1ccccc1-c1ccccc1)Nc1ccc(F)cc1 (stereo not given)	-0.9	13.9% (inactive)
Cc1ccsc1/C=N\NC(=O)CCc1c(C)n[nH]c1C	4	-13.2% (inactive)
Cc1cc(C)n(CC(O)COc2ccc(C(C)(C)C)cc2)n1 (stereo not given)	-4.8	7.7% (inactive)
CC1(C)OC(=O)C(=CNC(CCC(N)=O)C(=O)O)C(=O)O1 (stereo not given)	-1.3	15.1% (inactive)
CCC1=[N+]([O-])C(C)(/C(C)=N\O)N(O)C1(C)C (stereo not given)	-2.6	-11% (inactive)
COc1ccc(CC(=O)OC(C)C(=O)c2ccc(C)cc2)cc1 (stereo not given)	32	25.4% (inactive)
Cc1ccc(CN(Cc2ccccc2)C(=S)NCC(=O)NCc2cccnc2)o1	5.8	6.9% (inactive)
c1ccc(-c2cc(-c3nnco3)c3ccccc3n2)nc1	13.9	-6.2% (inactive)
CN1CCN(C(=O)c2cccc(S(=O)(=O)N3CCCCC3)c2)CC1	10.5	20.5% (inactive)
COCCC(=O)N1CCC(Oc2ccc(C(=O)N3CCCCCCC3)cc2)CC1	1.3	14% (inactive)
O=C(O)[C@@H]1CCCN1c1ncnc2sc3c(c12)CCC3	0.9	31.1%
O=C(CCCn1c(=O)c2cccn2c2cccnc21)NCc1cccc(Br)c1	-13.6	2.1% (inactive)
Cc1nn(CC(=O)NCCN2CCCCC2C)c(=O)c2cc(-c3ccccc3)nn12 (stereo not given)	17.6	1.6% (inactive)
CC(C)(C)c1cc(Cc2ccccc2)[nH]n1	-3.7	35.1%
COc1ccc(-c2cc(C(F)(F)F)nc(N3CCN(C)CC3)n2)cc1OC	8.9	8% (inactive)
Cc1onc(-c2ccccc2Cl)c1C(=O)NCc1cccnc1	22.1	15.9% (inactive)
NC(=O)c1nsc(C(=O)N(CC(=O)NC2CCCC2)c2ccc(F)c(Cl)c2)c1N	-4.6	15.2% (inactive)
c1ccc(C2CC3CC4(CCCC4)N2O3)cc1 (stereo not given)	17.2	-10.7% (inactive)
CSCCC(NC(=O)C1CCC(C)CC1)C(=O)Nc1ccc(NC(C)=O)cc1 (stereo not given)	24.8	18.5% (inactive)
COc1ccccc1C(=O)NC(CCSC)C(=O)NC1CCCCCC1 (stereo not given)	17.2	29.7% (inactive)
CCN(C(=O)COC(=O)c1cc(NS(=O)(=O)c2ccc(Cl)c([N+](=O)[O-])c2)ccc1O)C1CCCCC1	13.6	6.6% (inactive)
O=c1ccn(Cc2ccccc2Cl)cc1	33.3	14.1% (inactive)
O=S(=O)(NCc1cn2ccccc2n1)c1cccs1	8.4	-3.1% (inactive)
